Assay results: ChEMBL document CHEMBL1148373, “2-amino-O4-benzylpteridine derivatives: potent inactivators of O6-alkylguanine-DNA alkyltransferase” (2004)
Activity calls are given as the source filed them. The rule behind the calls is not given here.

Key:
HT-29 [1] = assay: Effective dose required to kill 90% of HT-29 cells with BCNU (40 uM); RPMI medium; format: functional, Homo sapiens
[2] = target: T1, Methylated-DNA--protein-cysteine methyltransferase (Homo sapiens) (UniProt P16455)
T1 sequence (whole entry): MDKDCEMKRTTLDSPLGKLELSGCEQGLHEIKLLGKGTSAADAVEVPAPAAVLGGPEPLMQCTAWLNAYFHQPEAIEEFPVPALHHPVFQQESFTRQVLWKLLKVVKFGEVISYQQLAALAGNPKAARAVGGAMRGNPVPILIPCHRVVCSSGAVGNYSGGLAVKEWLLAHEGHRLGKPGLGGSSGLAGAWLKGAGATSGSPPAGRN
Description: In vitro inactivation of human O6-alkylguanine-DNA alkyltransferase in the absence of calf thymus DNA (ctDNA)

HT-29 [3] = assay: Effective dose required to kill 90% of HT-29 cells with BCNU (40 Dulbecco''s medium; format: functional, Homo sapiens
[4] = target: T1, Methylated-DNA--protein-cysteine methyltransferase (Homo sapiens); remark: listed apart in the source
Description: In vitro inactivation of human O6-alkylguanine-DNA alkyltransferase in the presence of calf thymus DNA (ctDNA)

HT-29 [5] = assay: Effective dose required to kill 90% of HT-29 cells with BCNU (40 uM); folate-free RPMI medium; format: functional, Homo sapiens
HT-29 [6] = assay: Effective dose required to kill 90% of HT-29 cells with BCNU (40 uM); format: functional, Homo sapiens
HT-29 [7] = assay: Effective dose required to kill 90% of HT-29 cells with BCNU (40 uM; format: functional, cell-based; settings: Homo sapiens
HT-29 [8] = assay: Effective dose required to kill 90% HT-29 cells with BCNU (40 uM); format: functional, Homo sapiens

With `Nc1nc(OCc2ccccc2)c2nc[nH]c2n1` [6-O-BENZYLGUANINE] the ED90 (HT-29 [1]) was 700 nM, the ED50 [2] was 320 nM and the ED90 (HT-29 [3]) was 400 nM. For the same molecule, the ED50 [4] was 120 nM.

For `Nc1nc(OCc2ccccc2)c2nc(CNc3ccc(C(=O)N[C@@H](CCC(=O)O)C(=O)O)cc3)cnc2n1`, the ED90 (HT-29 [1]) was 24000 nM and the ED90 (HT-29 [5]) was 15000 nM.

In the case of `Nc1nc(OCc2ccccc2)c2nccnc2n1`, the ED90 (HT-29 [6]) is reported as 200 nM.

For `Cc1nc2nc(N)nc(OCc3ccccc3)c2nc1C`, the ED90 (HT-29 [6]) was 600 nM.

`Nc1nc(OCc2ccccc2)c2nc(C=O)cnc2n1` gave an ED90 (HT-29 [6]) of 700 nM.

For `Nc1nc(OCc2ccccc2)c2nc(C(=O)O)cnc2n1`, the ED90 (HT-29 [7]) was “inactive”.

`Nc1nc(OCc2ccccc2)c2nc(CO)cnc2n1` gave an ED90 (HT-29 [8]) of 700 nM.
